Values belong to the compound of their own block, whether it stands above or below them. Non-standard residues stand in square brackets, D forms with d. Residues, ends and D or L forms follow the SMILES beside them. βAla = NCCC(=O)O
Columns and labels:
[1] = system: cells in gels, all cell types; assay: Viability of cells in gels (alamarBlue); format: cell-based, human; conditions: cells in PEG gels, days 0, 3 and 7, across all cell types
Protocol: Cells were cultured in gels as described. A working solution was made by diluting the alamarBlue dye (Y00–100, Thermo Scientific) (1:10) with the same media cells were cultured in. The media the cells were in was replaced with one ml of working solution. One ml of working solution was also placed into 3 blank wells. The cells were then placed in the incubator 36°C, 5% CO2 for 3 hours. After 3 hours, 100 μL of the solution was sampled and placed into a 96 well plate, and fluorescence intensity was measured using a Tecan plate reader using 560Ex/590Em nm filter settings, reading from the bottom of the plate. Immediately after measurement, the alamar blue working solution was washed three times with appropriate media for each cell type being measured and placed back in the incubator. The same cells were used for each measurement during days 0, 3, and 7.

[2] = system: hUVECs
Protocol: Passage 2 of human umbilical vein endothelial cells (hUVECs) (Life Technology) were seeded into 24 well plates at a seeding density of 150,000 cells per well in 1ml of expansion media (Lifeline Cell Technology, LM-0002) containing ascorbic acid, hydrocortisone, FBS, L-Glutamine, rh-EGF, heparin, and EnGS-US (All supplements LifeFactors, LS-1122). After 24 hour the media was changed. Peptide libraries, each containing 19 peptides and the non-proteolytically degradable βFβAβAβAβAβA-NH2 internal standard, were added to the cell media for a final concentration of 37 μM per peptide. Each library was tested in triplicate per per cell type per study. 40 μl samples were collected from the media at hours 0, 1, 4, 8, 24, and 48. In-between timepoints samples were frozen −80°C. […]
Data Analysis was performed on Xcalibur Software (Thermo Scientific). Peptides were identified automatically using the Thermo Xcalibur Processing Setup window where the mass (m/z) ±0.5 AMU and expected retention times for each quantified peptide were inputted. This was later used to isolate individual peptide species from the total ion count (TIC) trace using the Thermo Xcalibur Quan Setup window, where the area under the curve was calculated and visually inspected for accuracy. […] Relative amounts of a peptide of peptide were then calculated by normalized all values to their corresponding time zero area ratio.

[3] = Degradation of individual glycine-terminated peptide at 19.5 to 5,000 μM (cell type not stated); format: in vitro ADME; conditions: individual peptide with glycine at the terminus, initial concentration 5,000 μM, LCMS, cell type not stated (Fig. 4A)
Protocol: The column temperature was a constant 29 °C. The Mass Spectrometer was operated in positive ion mode.
Data Analysis was performed on Xcalibur Software (Thermo Scientific). […] Calculated data was visualized using RStudio.

Compound: cyclic GRGDSK(N3) (head to tail) [cRGD, Cyclic RGD peptide, positive control, has no terminus, tethered to PEG-DBCO hydrogel by azide]
- viability within gels, in words [1]: greatest viability

- degradation in words [2]: rapidly degraded
Compound: LIAANK

- peptide remaining after 48 hours [3]: 5%
Compound: CC(C)[C@H](NC(=O)[C@H](Cc1ccccc1)NC(=O)[C@H](CCC(=O)O)NC(=O)CNC(=O)[C@H](CCCNC(=N)N)NC(=O)CN)C(=O)NCCC(N)=O [amine-terminated RGEFV peptides] (H-GRGEFV[βAla]-NH2)
